Consider five molecules from patent publication US10294217B2, “Fluoroindole derivatives as muscarinic M1 receptor positive allosteric modulators” (Suven Life Sciences Limited, priority 2015, dated 2019).

The nature of data set [1]: Protein binding assay (HT dialysis), dog matrices. The format is in vitro ADME. Conditions: Mean ± SEM. As to the method:
(§1) Unbound fractions of new chemical entities in plasma, brain homogenate and liver microsomes were determined using high-throughput dialysis (HT dialysis). Briefly, dialysis membranes were soaked in deionized water for 20 minutes and then in deionized water with 30% ethanol for 15 minutes and finally in phosphate buffer until use. Membranes were rinsed in phosphate buffer before assembling. The membranes were layered between teflon bars of dialysis assembly. Stock solutions of test compounds were prepared at 10 mM in DMSO, diluted to 1 mM in acetonitrile and further diluted to 100 μM in mixture of water and acetonitrile (1:1 v/v). Human plasma (pool of 3) was prepared from human blood (3 donors) by centrifuging at 4000 rpm for 10 min at 4° C. Rat and dog blood were obtained on the day of the study and centrifuged to obtain plasma. Rat brains were isolated, cleaned and homogenized with 2 volumes of buffer (3 fold dilution). Liver microsomes were prepared at 0.5 mg/mL in phosphate buffer (100 mM, pH 7.4). The dialysate chambers were loaded with 150 μL of 100 mM phosphate buffer (pH 7.4) in triplicates. The matrix chambers were loaded with 150 μL of the plasma or brain homogenate or microsomal suspension spiked with test compounds at a final concentration of 1 μM. 50 μL of the sample was removed from both the chambers at 0 h. The plate was sealed and incubated at 37° C. for 6 h at 100 rpm. After 6 h, 50 μL of the sample was removed from both the chambers. Equal volumes of buffer or human plasma/microsomal suspension were added to the plasma/microsomal and buffer samples respectively to create identical sample matrices for analysis. The samples were precipitated with 150 μL of acetonitrile containing fluoxetine as an internal standard. All the samples were centrifuged at 10000 rpm for 10 minutes at 4° C.

The nature of data set [2]: Protein binding assay (HT dialysis), human matrices. The format is in vitro ADME. The note with it: Mean ± SEM. As to the method:
as §1

Data set [3] can be described thus: Rodent pharmacokinetic study. The class given is in vivo, Male Wistar rats. The note with it: male, Wistar; for AUC(0-t) / half-life / Cmax: rat plasma; for clearance / bioavailability: plasma, rat; for bioavailability: oral 3 mg/kg vs i.v. 1 mg/kg, read-out: % F (Bioavailability). As to the method:
Rodent Pharmacokinetic Study
Male Wistar rats (260±50 grams) were used as experimental animals. Animals were housed individually in polypropylene cage. Two days prior to study, male Wistar rats were anesthetized with isoflurane for surgical placement of jugular vein catheter. Rats were randomly divided for oral (3 mg/kg) and intravenous (i.v.) (1 mg/kg) dosing (n=3/group) and fasted overnight before oral dosing (p.o.). However, rats allocated to intravenous dosing food and water was provided ad libitum.
At pre-determined point, blood was collected through jugular vein and replenished with an equivalent volume of normal saline. Collected blood was transferred into a labeled eppendorf tube containing 10 μL of heparin as an anticoagulant. Typically blood samples were collected at following time points: 0.08, 0.25, 0.5, 1, 2, 4, 6, 8, and 24 hours post dose. Blood was centrifuged at 4000 rpm for 10 minutes. Plasma was separated and stored frozen at −80° C. until analysis. The concentrations of the test compounds were quantified in plasma by qualified LC-MS/MS method using suitable extraction technique. The test compounds were quantified in the calibration range around 1-1000 ng/mL in plasma. Study samples were analyzed using calibration samples in the batch and quality control samples spread across the batch.
Pharmacokinetic parameters Cmax, AUCt, T1/2, Clearance, and Bioavailability (% F) were calculated by non-compartmental model using standard non-compartmental model by using Phoenix WinNonlin 6.0.2 or 6.0.3 version Software package and the results are tabulated in table 3.

Data set [4] in a line: Rodent brain penetration study. The class given is in vivo, Male Wistar rats. Conditions: male, Wistar, rat, oral; 3 mg/kg, p.o.; brain-plasma ratio; read-out: Single dose Rat Brain Penetration (Cb/Cp). As to the method:
WO2015044072A1 patent application discloses indole derivatives as M1 PAM compounds. […] This makes these compounds less ideal for the treatment of CNS disorders.
Rodent Brain Penetration Study
Male Wistar rats (260±40 grams) were used as experimental animals. Three animals were housed in each cage. Animals were given water and food ad libitum throughout the experiment and maintained on a 12 hours light/dark cycle.
Brain penetration was determined in discrete manner in rats. One day prior to dosing day, male Wistar rats were acclimatized and randomly grouped according to their weight. At each time point (0.5, 1 and 2 hours) n=3 animals were used.
The test compounds were suitably preformulated and administered orally at (free base equivalent) 3 mg/kg. Blood samples were removed via cardiac puncture by using isoflurane anesthesia. The animals were sacrificed to collect brain tissue. Plasma was separated and brain samples were homogenized and stored frozen at ˜20° C. until analysis. The concentrations of the test compounds in plasma and brain were determined using LC-MS/MS method.
The test compounds were quantified in plasma and brain homogenate by qualified LC-MS/MS method using suitable extraction technique. The test compounds were quantified in the calibration range of 1-500 ng/mL in plasma and brain homogenate. Study samples were analyzed using calibration samples in the batch and quality control samples spread across the batch.

In the next data set the test system is Male Wistar rats. In words: Object recognition task model. The format is in vivo. Conditions: p.o.; for Exploration time Familiar object / Exploration time Novel object: mean ± S.E.M, choice trial 24 hours after T1. As to the method:
Object Recognition Task Model
The cognition enhancing properties of compounds of this invention were estimated by using this model.
Male Wistar rats (8-10 weeks old) were used as experimental animals. Four animals were housed in each cage. Animals were kept on 20% food deprivation from a day prior to experimentation. Water was provided ad libitum throughout the experiment. Animals were maintained on a 12 hours light/dark cycle in temperature and humidity controlled room. The experiment was carried out in an open field made up of acrylic. Rats were habituated to individual arenas (open field) for 1 hour in the absence of any objects on day 1.
One group of 12 rats received vehicle and another set of animals received compound of the formula (I), before the familiar (T1) and choice (T2) trials. During the familiarization phase, (T1), the rats were placed individually in the arena for 3 minutes, in which two identical objects (a1 and a2) were positioned 10 cm from the wall. 24 hours after T1, trial for long-term memory test was performed. The same rats were placed in the same arena as they were placed in T1 trial. During the choice phase (T2) rats were allowed to explore the arena for 3 minutes in presence of a copy of familiar object (a3) and one novel object (b). During the T1 and T2 trial, explorations of each object (defined as sniffing, licking, chewing or having moving vibrissae whilst directing the nose towards the object at a distance of less than 1 cm) were recorded using stopwatch. • T1 is the total time spent exploring the familiar objects (a1+a2). • T2 is the total time spent exploring the familiar object and novel object (a3+b). • Discriminative index=Time spent with novel object/(time spent with novel and familiar object).
The object recognition test was performed as described by Behavioural Brain Research, 1988, 31, 47-59 and the results are provided in table 5.

Where [5] appears, read: pH 7.4, Dog liver microsomes 0.5 mg/mL, n = 3, read-out: Fu Microsomes.
The mark [6] stands for this setting: pH 7.4, Dog plasma, 37° C., n = 3, read-out: Fu Plasma.
Setting [7] is: pH 7.4, Human liver microsomes 0.5 mg/mL, n = 3, read-out: Fu Microsomes.
Setting [8] is: pH 7.4, Human plasma, 37° C., n = 3, read-out: Fu Plasma.

The term AUC(0-t) denotes exposure summed from dosing to a finite time, without extrapolation to infinity. A word on the half-life: it is how long it takes for the measured level to halve. The clearance is the volume of plasma or blood freed of the substance per unit of time. A lower clearance goes with a low capacity for elimination. For orientation: bioavailability means the share of a dose that reaches the circulation, judged against a reference dose that is usually intravenous. In general, Cmax refers to the peak of the concentration-time curve. Take `Cl.O=C(N[C@H]1CCNC[C@H]1F)c1cn(Cc2ccnc(F)c2)c2c(F)ccc(F)c12` (single isomer, unassigned; isomer-i) [Example 22, Cis-N-(3-Fluoropiperidin-4-yl)-1-(2-fluoropyridin-4-ylmethyl)-4,7-difluoro-1H-indole-3-carboxamide hydrochloride (Isomer-I)]: the fraction unbound at 6 h, 1 μM in data set [1] (setting [5]) amounted to 0.866 ± 0.034. Besides, the fraction unbound at 6 h, 1 μM in data set [1] (setting [6]) worked out at 0.31 ± 0.01. Moreover, the fraction unbound at 6 h, 1 μM in data set [2] (setting [7]) was 0.788 ± 0.031. In data set [2] (setting [8]), the fraction unbound at 6 h, 1 μM amounted to 0.309 ± 0.008. Also, in data set [3] (iv, 1 mg/kg), the AUC(0-t) was determined as 908 ± 198 ng·h/mL, the half-life is 456 ± 102 min and the clearance was 17.1 ± 3.3 mL/min/kg. Besides, the bioavailability in data set [3] was found to be 60 ± 5%. In addition, in data set [3] (oral, 3 mg/kg), the AUC(0-t) stood at 1650 ± 147 ng·h/mL, the Cmax came to 207 ± 76 ng/mL and the half-life is 288 ± 168 min. In data set [4], the Kp stood at 0.46 ± 0.11. Besides, in the data set with Male Wistar rats (3 mg/kg), the Inference entry is recorded as “Active”, the “Exploration time Familiar object” value is 8.21 ± 0.70 s and the “Exploration time Novel object” value came to 15.72 ± 2.25 s.

Take `Cn1cc(Cn2cc(C(=O)N[C@H]3CCCC[C@@H]3O)c3c(F)cccc32)cn1` [Example 1, N-[(1S,2S)-2-Hydroxycyclohexyl]-1-(1-methyl-1H-pyrazol-4-ylmethyl)-4-fluoro-1H-indole-3-carboxamide]: the fraction unbound at 6 h, 1 μM in data set [1] (setting [5]) came out at 0.982 ± 0.01. In data set [1] (setting [6]), the fraction unbound at 6 h, 1 μM stood at 0.217 ± 0.21. Besides, in data set [2] (setting [8]), the fraction unbound at 6 h, 1 μM is 0.197 ± 0.01. In data set [3] (iv, 1 mg/kg), the AUC(0-t) amounted to 2250 ± 190 ng·h/mL, the half-life was 180 ± 18 min and the clearance came to 7.3 ± 0.4 mL/min/kg. In data set [3], the bioavailability stood at 76 ± 7%. In data set [3] (oral, 3 mg/kg), this molecule had an AUC(0-t) of 5160 ± 464 ng·h/mL, a Cmax of 1190 ± 81 ng/mL and a half-life of 174 ± 12 min. Also, the Kp in data set [4] stood at 0.3 ± 0.05. Moreover, in the data set on Male Wistar rats (0.3 mg/kg), the Inference entry was “Active”, the “Exploration time Familiar object” value came out at 11.31 ± 1.07 s and the “Exploration time Novel object” value is 28.92 ± 3.54 s.

Turning to `O=C(N[C@H]1CCCC[C@@H]1O)c1cn(Cc2ccnc(Cl)c2)c2cccc(F)c12` [Example 2, N-[(1S,2S)-2-Hydroxycyclohexyl]-1-(2-chloropyridin-4-ylmethyl)-4-fluoro-1H-indole-3-carboxamide], the fraction unbound at 6 h, 1 μM in data set [1] (setting [5]) turned out to be 0.576 ± 0.079. Moreover, the fraction unbound at 6 h, 1 μM in data set [1] (setting [6]) worked out at 0.087 ± 0.008. In addition, the fraction unbound at 6 h, 1 μM in data set [2] (setting [7]) amounted to 0.459 ± 0.046. Also, in data set [2] (setting [8]), the fraction unbound at 6 h, 1 μM worked out at 0.04 ± 0.002. Also, in data set [3] (iv, 1 mg/kg), the AUC(0-t) was found to be 1150 ± 245 ng·h/mL, the half-life was 114 ± 24 min and the clearance was found to be 16.1 ± 2.8 mL/min/kg. Further, the bioavailability in data set [3] stood at 63 ± 17%. In data set [3] (oral, 3 mg/kg), this molecule had an AUC(0-t) of 2160 ± 599 ng·h/mL, a Cmax of 632 ± 167 ng/mL and a half-life of 114 ± 12 min. In addition, the Kp in data set [4] was 0.95 ± 0.17. In the data set on Male Wistar rats (1 mg/kg), the Inference entry is given as “Active”, the “Exploration time Familiar object” value came to 9.06 ± 1.75 s and the “Exploration time Novel object” value came to 15.09 ± 2.19 s.

As for `Cn1cc(Cn2cc(C(=O)N[C@H]3CCCC[C@@H]3O)c3c(F)ccc(F)c32)cn1` [Example 5, N-[(1S,2S)-2-Hydroxycyclohexyl]-1-(1-methyl-1H-pyrazol-4-ylmethyl)-4,7-difluoro-1H-indole-3-carboxamide], in data set [1] (setting [5]), the fraction unbound at 6 h, 1 μM is 0.746 ± 0.004. In data set [1] (setting [6]), the fraction unbound at 6 h, 1 μM stood at 0.163 ± 0.02. Further, the fraction unbound at 6 h, 1 μM in data set [2] (setting [7]) was determined as 0.899 ± 0.03. Further, in data set [2] (setting [8]), the fraction unbound at 6 h, 1 μM was 0.077 ± 0.01. In addition, in data set [3] (iv, 1 mg/kg), the AUC(0-t) is 2920 ± 1430 ng·h/mL, the half-life was 240 ± 102 min and the clearance turned out to be 7.1 ± 4.3 mL/min/kg. Besides, the bioavailability in data set [3] worked out at 90 ± 33%. Besides, in data set [3] (oral, 3 mg/kg), the AUC(0-t) is 7870 ± 2860 ng·h/mL, the Cmax is 2680 ± 664 ng/mL and the half-life is 198 ± 18 min. Further, in data set [4], the Kp came out at 0.5 ± 0.04. In the data set with Male Wistar rats (0.3 mg/kg), the Inference entry is listed as “Active”, the “Exploration time Familiar object” value stood at 11.00 ± 0.81 s and the “Exploration time Novel object” value turned out to be 19.64 ± 1.74 s.

For the molecule `O=C(N[C@H]1CCCC[C@@H]1O)c1cn(Cc2ccnc(F)c2)c2cccc(F)c12` [Example 7, N-[(1S,2S)-2-Hydroxycyclohexyl]-1-(2-fluoropyridin-4-ylmethyl)-4-fluoro-1H-indole-3-carboxamide], the fraction unbound at 6 h, 1 μM in data set [1] (setting [5]) stood at 0.6 ± 0.03. For the same molecule, the fraction unbound at 6 h, 1 μM in data set [1] (setting [6]) is 0.2 ± 0.01. For the same molecule, the fraction unbound at 6 h, 1 μM in data set [2] (setting [7]) was 0.7 ± 0.03. The fraction unbound at 6 h, 1 μM in data set [2] (setting [8]) came out at 0.1 ± 0.004. In data set [3] (iv, 1 mg/kg), this molecule had an AUC(0-t) of 1120 ± 119 ng·h/mL, a half-life of 120 ± 24 min and a clearance of 14.2 ± 2 mL/min/kg. The bioavailability in data set [3] was found to be 67 ± 14%. For the same molecule, in data set [3] (oral, 3 mg/kg), the AUC(0-t) amounted to 2260 ± 471 ng·h/mL, the Cmax amounted to 783 ± 254 ng/mL and the half-life is 84 ± 12 min. Besides, the Kp in data set [4] was 0.61 ± 0.01. Also, in the data set with Male Wistar rats (1 mg/kg), the Inference entry is “Active”, the “Exploration time Familiar object” value amounted to 9.16 ± 0.83 s and the “Exploration time Novel object” value stood at 19.56 ± 1.96 s.
